Laboratory results published in the NIST ThermoML archive (doi:10.1021/acs.jced.5b00936).
± gives the expanded uncertainty stated by the source.

Columns and labels:
[1] = for viscosity / mass density: 100 kPa, Liquid; for viscosity: Concentric cylinders viscometry; for mass density: Vibrating tube method; for Triple point temperature: Crystal, DSC
[2] = refractive index (Na D-line) (dimensionless); conditions: 100 kPa, Liquid, Standard Abbe refractometry

CCCC[P+](CCCC)(CCCC)CCCC.O=S(=O)([O-])CC(O)CNC1CCCCC1
Conditions	mass density, [1] [kg/m3]	refractive index, [2]	viscosity, [1] [mPa·s]
288.15 K	1037.4 ± 2.1	1.49654 ± 0.0012	32956 ± 4200
293.15 K	1034.2 ± 2.1	1.49497 ± 0.0012	17587 ± 2200
298.15 K	1031.1 ± 2.1	1.49313 ± 0.0012	10098 ± 1200
303.15 K	1028.2 ± 2.1	1.49162 ± 0.0012	6481.6 ± 760
308.15 K	1025.1 ± 2.1	1.48983 ± 0.0012	3796 ± 430
313.15 K	1022.1 ± 2.1	1.48782 ± 0.0012	2441.9 ± 270
318.15 K	1019 ± 2.1	1.48724 ± 0.0012	1624.2 ± 180
323.15 K	1016 ± 2	1.48547 ± 0.0012	1109.7 ± 120
328.15 K	1012.9 ± 2	1.48368 ± 0.0012	779.6 ± 83
333.15 K	1009.8 ± 2	1.48202 ± 0.0012	558.2 ± 59
338.15 K	1006.8 ± 2	1.48045 ± 0.0012	409 ± 43
343.15 K	1003.8 ± 2	1.47902 ± 0.0012	304.6 ± 32
348.15 K	1000.9 ± 2	1.47764 ± 0.0012	231 ± 24
353.15 K	997.9 ± 2	1.4763 ± 0.0012	177.9 ± 18

C[N+](C)(C)CCO.O=S(=O)([O-])CC(O)CNC1CCCCC1 (configuration not stated)
Conditions	Triple point temperature [K]
[1]	365.15 ± 0.81

CCCC[N+](CCCC)(CCCC)CCCC.O=S(=O)([O-])CCN(CCO)CCO
Conditions	mass density, [1] [kg/m3]	refractive index, [2]	viscosity, [1] [mPa·s]
288.15 K	–	1.49093 ± 0.0011	–
293.15 K	–	1.48966 ± 0.0011	–
298.15 K	–	1.48834 ± 0.0011	–
303.15 K	–	1.48706 ± 0.0011	–
308.15 K	–	1.48577 ± 0.0011	–
313.15 K	1052.4 ± 1	1.48445 ± 0.0011	12001 ± 1400
318.15 K	1049.6 ± 1	1.48317 ± 0.0011	7582.5 ± 890
323.15 K	1046.8 ± 1	1.48185 ± 0.0011	4970.6 ± 570
328.15 K	1044 ± 1	1.48052 ± 0.0011	3346.6 ± 380
333.15 K	1041.2 ± 1	1.4792 ± 0.0011	2305.7 ± 260
338.15 K	1038.4 ± 1	1.47784 ± 0.0011	1621.8 ± 180
343.15 K	1035.6 ± 1	1.47646 ± 0.0011	1163.2 ± 120
348.15 K	1032.8 ± 1	1.47502 ± 0.0011	848.3 ± 90
353.15 K	1030.1 ± 1	1.47363 ± 0.0011	630 ± 66

CCCC[N+](CCCC)(CCCC)CCCC.O=S(=O)([O-])CC(O)CNC1CCCCC1
Conditions	mass density, [1] [kg/m3]	refractive index, [2]	viscosity, [1] [mPa·s]
308.15 K	1020.4 ± 2.1	1.48329 ± 0.0012	41227 ± 5400
313.15 K	1017.3 ± 2	1.48189 ± 0.0012	22114 ± 2800
318.15 K	1014.4 ± 2	1.48037 ± 0.0012	12579 ± 1500
323.15 K	1011.5 ± 2	1.47937 ± 0.0012	7480.4 ± 890
328.15 K	1008.6 ± 2	1.47772 ± 0.0012	4609.3 ± 530
333.15 K	1005.7 ± 2	1.47617 ± 0.0012	2935.7 ± 330
338.15 K	1002.8 ± 2	1.47449 ± 0.0012	1926.8 ± 210
343.15 K	999.9 ± 2	1.47291 ± 0.0012	1299.4 ± 140
348.15 K	997.2 ± 2	1.47137 ± 0.0012	898.5 ± 96
353.15 K	994.3 ± 2	1.46985 ± 0.0012	635.7 ± 67

CCCC[N+](CCCC)(CCCC)CCCC.O=S(=O)([O-])CC(O)CNC(CO)(CO)CO
Conditions	Triple point temperature [K]
[1]	364.15 ± 0.81

C[N+](C)(C)CCO.O=S(=O)([O-])CC(O)CN1CCOCC1 (configuration not stated)
Conditions	mass density, [1] [kg/m3]	refractive index, [2]	viscosity, [1] [mPa·s]
308.15 K	1235.3 ± 3	1.49778 ± 0.0012	49189 ± 6500
313.15 K	1232 ± 2.9	1.49658 ± 0.0012	28090 ± 3600
318.15 K	1228.7 ± 2.9	1.49531 ± 0.0012	16897 ± 2100
323.15 K	1225.6 ± 2.9	1.49453 ± 0.0012	10898 ± 1300
328.15 K	1222.5 ± 2.9	1.49323 ± 0.0012	6933.2 ± 820
333.15 K	1219.5 ± 2.9	1.49185 ± 0.0012	4600.3 ± 530
338.15 K	1216.5 ± 2.9	1.48995 ± 0.0012	3099.4 ± 350
343.15 K	1213.5 ± 2.8	1.48831 ± 0.0012	2158.8 ± 240
348.15 K	1211.6 ± 2.8	1.48671 ± 0.0012	1545.5 ± 170
353.15 K	1209.7 ± 2.8	1.4852 ± 0.0012	1122.3 ± 120

CCCC[P+](CCCC)(CCCC)CCCC.O=S(=O)([O-])CC(O)CNC(CO)(CO)CO
Conditions	Triple point temperature [K]
[1]	369.15 ± 0.81
